{
  "source": "PubChem BioAssay (NCI)",
  "experiment_in_all_cases": "NCI-60 cell line screen, 48 h",
  "key": {"[1]": {"tested_on": "IGROV1 ovarian"}, "[2]": {"tested_on": "SF-295 CNS"}, "[3]": {"tested_on": "OVCAR-3 ovarian"}, "[4]": {"tested_on": "SF-539 CNS"}, "[5]": {"tested_on": "HCC-2998 colon"}, "[6]": {"tested_on": "HL-60(TB) leukemia"}, "[7]": {"tested_on": "CAKI-1 renal"}, "[8]": {"tested_on": "NCI/ADR-RES ovarian"}, "[9]": {"tested_on": "T-47D breast"}, "[10]": {"tested_on": "SNB-75 CNS"}, "[11]": {"tested_on": "786-0 renal"}, "[12]": {"tested_on": "HOP-92 NSCLC"}, "[13]": {"tested_on": "COLO 205 colon"}, "[14]": {"tested_on": "SF-268 CNS"}, "[15]": {"tested_on": "KM12 colon"}, "[16]": {"tested_on": "BT-549 breast"}, "[17]": {"tested_on": "PC-3 prostate"}, "[18]": {"tested_on": "HCT-15 colon"}, "[19]": {"tested_on": "LOX IMVI melanoma"}, "[20]": {"tested_on": "A498 renal"}, "[21]": {"tested_on": "HCT-116 colon"}, "[22]": {"tested_on": "SW-620 colon"}, "[23]": {"tested_on": "OVCAR-8 ovarian"}, "[24]": {"tested_on": "SK-MEL-28 melanoma"}, "[25]": {"tested_on": "EKVX NSCLC"}, "[26]": {"tested_on": "M14 melanoma"}, "[27]": {"tested_on": "U251 CNS"}, "[28]": {"tested_on": "UACC-62 melanoma"}},
  "note": "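Following 48 hours of exposure in 96-well plates, responses at five concentrations were used to interpolate endpoints linearly. Abbreviation: GI50, concentration required for 50% inhibition of growth. At the TGI there is no net growth.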",
  "data": [
    {"smiles": "O=C(N/N=C/c1ccc(-c2cccc([N+](=O)[O-])c2)o1)c1[nH]c2ccc(Br)cc2c1-c1ccccc1", "values": [
      {"measurement": "TGI", "setting": "[1]", "value": "> 100", "unit": "µM"},
      {"measurement": "GI50", "setting": "[2]", "value": 3.17, "unit": "µM"},
      {"measurement": "TGI", "setting": "[2]", "value": "> 100", "unit": "µM"},
      {"measurement": "GI50", "setting": "[3]", "value": 3.47, "unit": "µM"},
      {"measurement": "TGI", "setting": "[3]", "value": "> 100", "unit": "µM"},
      {"measurement": "GI50", "setting": "[4]", "value": 2.34, "unit": "µM"},
      {"measurement": "TGI", "setting": "[4]", "value": 5.81, "unit": "µM"},
      {"measurement": "GI50", "setting": "[5]", "value": 4.63, "unit": "µM"},
      {"measurement": "TGI", "setting": "[5]", "value": "> 100", "unit": "µM"},
      {"measurement": "GI50", "setting": "[6]", "value": 1.94, "unit": "µM"},
      {"measurement": "TGI", "setting": "[6]", "value": 5.32, "unit": "µM"},
      {"measurement": "GI50", "setting": "[7]", "value": 30.9, "unit": "µM"},
      {"measurement": "TGI", "setting": "[7]", "value": "> 100", "unit": "µM"},
      {"measurement": "GI50", "setting": "[8]", "value": 2.53, "unit": "µM"},
      {"measurement": "TGI", "setting": "[8]", "value": 6.49, "unit": "µM"},
      {"measurement": "GI50", "setting": "[9]", "value": "> 100", "unit": "µM"},
      {"measurement": "TGI", "setting": "[9]", "value": "> 100", "unit": "µM"},
      {"measurement": "GI50", "setting": "[10]", "value": 4.56, "unit": "µM"},
      {"measurement": "TGI", "setting": "[10]", "value": "> 100", "unit": "µM"},
      {"measurement": "GI50", "setting": "[11]", "value": 2.75, "unit": "µM"},
      {"measurement": "TGI", "setting": "[11]", "value": 13.3, "unit": "µM"},
      {"measurement": "GI50", "setting": "[12]", "value": 46.1, "unit": "µM"},
      {"measurement": "TGI", "setting": "[12]", "value": "> 100", "unit": "µM"},
      {"measurement": "GI50", "setting": "[13]", "value": 2.75, "unit": "µM"},
      {"measurement": "TGI", "setting": "[13]", "value": 7.49, "unit": "µM"},
      {"measurement": "GI50", "setting": "[14]", "value": 5.55, "unit": "µM"},
      {"measurement": "TGI", "setting": "[14]", "value": "> 100", "unit": "µM"},
      {"measurement": "GI50", "setting": "[15]", "value": 3.75, "unit": "µM"},
      {"measurement": "TGI", "setting": "[15]", "value": "> 100", "unit": "µM"},
      {"measurement": "GI50", "setting": "[16]", "value": 2.16, "unit": "µM"},
      {"measurement": "TGI", "setting": "[16]", "value": 6.28, "unit": "µM"},
      {"measurement": "GI50", "setting": "[17]", "value": 4.28, "unit": "µM"},
      {"measurement": "TGI", "setting": "[17]", "value": "> 100", "unit": "µM"},
      {"measurement": "GI50", "setting": "[18]", "value": 3.59, "unit": "µM"},
      {"measurement": "TGI", "setting": "[18]", "value": "> 100", "unit": "µM"},
      {"measurement": "GI50", "setting": "[19]", "value": 3.71, "unit": "µM"},
      {"measurement": "TGI", "setting": "[19]", "value": "> 100", "unit": "µM"},
      {"measurement": "GI50", "setting": "[20]", "value": "> 100", "unit": "µM"},
      {"measurement": "TGI", "setting": "[20]", "value": "> 100", "unit": "µM"},
      {"measurement": "GI50", "setting": "[21]", "value": 3.04, "unit": "µM"},
      {"measurement": "TGI", "setting": "[21]", "value": 10.4, "unit": "µM"},
      {"measurement": "GI50", "setting": "[22]", "value": 4.5, "unit": "µM"},
      {"measurement": "TGI", "setting": "[22]", "value": "> 100", "unit": "µM"},
      {"measurement": "GI50", "setting": "[23]", "value": 2.44, "unit": "µM"},
      {"measurement": "TGI", "setting": "[23]", "value": 5.5, "unit": "µM"},
      {"measurement": "GI50", "setting": "[24]", "value": 6.75, "unit": "µM"},
      {"measurement": "TGI", "setting": "[24]", "value": "> 100", "unit": "µM"},
      {"measurement": "GI50", "setting": "[25]", "value": 5.74, "unit": "µM"},
      {"measurement": "TGI", "setting": "[25]", "value": "> 100", "unit": "µM"},
      {"measurement": "GI50", "setting": "[26]", "value": 3.43, "unit": "µM"},
      {"measurement": "TGI", "setting": "[26]", "value": "> 100", "unit": "µM"},
      {"measurement": "GI50", "setting": "[27]", "value": 3.34, "unit": "µM"},
      {"measurement": "TGI", "setting": "[27]", "value": "> 100", "unit": "µM"},
      {"measurement": "GI50", "setting": "[28]", "value": 4.46, "unit": "µM"},
      {"measurement": "TGI", "setting": "[28]", "value": "> 100", "unit": "µM"}
    ]}
  ]
}
